Reference: patent US20250270648A1, “MOLECULAR SIGNATURE FOR ASSESSING THE RESPONSIVENESS OF CANCER TO MITOCHONDRIA-TARGETED ANTIOXIDANTS” (UNIVERSITÉ CATHOLIQUE DE LOUVAIN, priority 2021, published 2025)

Columns and labels:
MDA-MB-436 cells [1] = experiment: Direct cell counting, MitoQ alone; assay type: cell-based, human; conditions: increasing doses of MitoQ (0 to 500 nM)
Procedure: To probe the effects of MitoQ alone on cell numbers, MDA-MB-231, SkBr3, MDA-MB-436 or MCF10A (2,500-10,000 cells/well) cells were plated in 96-well plates and treated with increasing concentrations of MitoQ. At each time point, the number of cells per well was measured using a SpectraMax i3 spectrophotometer equipped with a MiniMax™ imaging cytometer.

MDA-MB-231 cells [2] = experiment: RT-qPCR of EMT markers; assay type: cell-based, human; conditions: MitoQ 500 nM, 48 h
Procedure: (§1) Total mRNA from MDA-MB-231, SkBr3 and MDA-MB-436 cells treated ±MitoQ for 48 h was extracted using the NucleoSpin RNA Kit (Macherey-Nagel®). Total mRNA from primary tumors was extracted with Tri reagent (Molecular Research Center®, Cat #TR118). mRNAs were quantified by the Qubit BR dsRNA assay kit (Thermo Fisher Scientific®), and mRNA integrity was evaluated on an Agilent® 2100 Bioanalyzer with the RNA 6000 nano kit (Agilent®). It was reverse transcribed in complementary DNA using the High-Capacity cDNA Reverse Transcription Kit (Applied Biosystems®, cat #4368814) according to manufacturer's protocol. Complementary DNA (500 ng) was amplified by real time quantitative PCR (RT-qPCR) using the low ROX SYBR Master Mix dTTP Blue (Eurogentec®) and primers listed in Table 5 and Table 6 on a ViiA 7 Real-Time PCR System (Thermo Fisher Scientific®). Gene expression was normalized to β-actin gene expression.

MDA-MB-436 cells [3] = experiment: RT-qPCR of EMT markers; assay type: cell-based, human; conditions: MitoQ 100 nM, 48 h
Procedure: as §1

SkBr3 cells [4] = experiment: RT-qPCR of EMT markers; assay type: cell-based, human; conditions: MitoQ 500 nM, 48 h
Procedure: as §1

MDA-MB-231 cells [5] = experiment: Cell migration, scratch test; assay type: cell-based, human; conditions: MitoQ 100 nM, 48 h
Procedure: (§2) A scratch test was performed on cells treated ±MitoQ for 48 h (Tamura et al.; Science, 1998; 280, 1614-1617). For each condition and each time point, pictures were taken in the same field, and the distance between the wound edges was analyzed using the Image J software (Java®). The percentage of scratch closure was calculated in respect to wounded area at 0 h.

MDA-MB-436 cells [6] = experiment: Cell migration, scratch test; assay type: cell-based, human; conditions: MitoQ 100 nM, 48 h
Procedure: as §2

SkBr3 cells [7] = experiment: Cell migration, scratch test; assay type: cell-based, human; conditions: MitoQ 100 nM, 48 h
Procedure: as §2

[8] = test system: MDA-MB-231 primary tumors in mice; experiment: RT-qPCR of resected primary tumors; assay type: in vivo, mouse; conditions: MitoQ 20 mg/kg daily oral
Procedure: as §1
For spontaneous metastasis assays using human breast cancer cells, MDA-MB-231, SkBr3 or MDA-MB-436 cells were prepared in medium containing 10% growth factor-reduced Matrigel (Corning®, cat #734-11-01). Five weeks-old female Rj:NMRI-Foxnlnu/nu mice (Janvier) were injected with 10^6 cancer cells in 100 μL of solution in the left second mammary fat pad. After tumor take (72 h), mice were daily treated ±20 mg/Kg MitoQ by oral gavage. Tumor size was measured once per week with an electronic caliper. Four weeks after treatment initiation, primary tumors were surgically removed and processed for RT-qPCR. Tumor recurrence was monitored until recurred tumors in the vehicle group reached about […], i.e. 24 days after surgery. At this time point, mice were sacrificed and their lungs collected and fixed in PFA 4% for immunocytochemistry.

MDA-MB-436 cells [9] = experiment: Western blotting (EMT proteins); assay type: cell-based, human; conditions: MitoQ 500 nM, 48 h
Procedure: For western blotting (WB), whole-protein extracts from MDA-MB-231, SkBr3 and MDA-MB-436 cells were prepared using RIPA buffer (50 mM Tris pH 7.4, 150 mM NaCl, 1% Triton-X-100, 0.05% sodium deoxycholate, 1 mM EDTA, 0.1% SDS, protease inhibitor cocktail and PhosSTOP Phosphatase Inhibitor Cocktail (Roche®)), centrifuged at 10,000×g for 10 min, and quantified using the Bio-Rad® Protein Assay. Proteins (50 μg for MDA-MB-231 and 100 μg for SkBr3 and MDA-MB-436 cells) were loaded into each lane of a 10-12% polyacrylamide gel in the presence of SDS, and were allowed to separate at 120 V for 90 min. The transfer of proteins onto nitrocellulose membranes was performed using an iBlot 2 Dry Blotting System (Thermo Fisher Scientific®) with the 7 min P0 program. Membranes were then blocked using 5% (w/v) powdered milk for 1 h, and incubated overnight at 4° C. with a primary antibody (Table 4).
β-actin served as a loading control. Immunodetection was performed at room temperature for 1 h using as secondary antibodies a horseradish peroxidase-conjugated goat anti-rabbit (Jackson®, Cat #111-035-003) and goat anti-mouse (Jackson®, Cat #115-035-003) in PBS-Tween containing 5% (w/v) milk or BSA. Detection was performed with ECL reagent (Amersham®, Cat #RPN2209), and protein bands were visualized and captured using ECL imager 600 (Amersham®). They were analyzed using the Image J software (Java).

MDA-MB-231 cells [10] = experiment: Cell cycle, flow cytometry with propidium iodide; assay type: cell-based, human; conditions: MitoQ 100 nM, 48 h
Procedure: Cells were seeded in 6-well plates at a density of 500,000 cells/well and allowed to adhere overnight. Cells were then starved in 0.1% FBS medium for 24 h and treated for 48 h±MitoQ. Afterwards, they were detached with trypsin-EDTA (0.05%) (Gibco®, cat #25300054) and centrifuged at 1,200 rpm for 5 min. Culture medium was discarded, and the pellets washed. Cells were fixed by adding 700 μL of ice-cold ethanol 100% in 300 μL of cell suspension in PBS. Cells were then washed twice with 1 mL of Tris buffer with 0.2% (v/v) Triton X-100, and finally resuspended in 300 μL of PBS with RNase (0.2 mg/mL) and propidium iodide (5 μg/mL). At least 10^4 events were acquired using a FACSCalibur™ flow cytometer (Becton Dickinson®), and the FlowJo cell cycle analysis tool was used to analyze data according to DNA content.

Structure (SMILES): COC1=C(OC)C(=O)C(CCCCCCCCCC[P+](c2ccccc2)(c2ccccc2)c2ccccc2)=C(C)C1=O [MitoQ]
- cell numbers (MDA-MB-436 cells [1]): dose-dependently reduced
- SLUG/SNAI2 transcription (MDA-MB-231 cells [2]): not significantly altered
- mRNA expression of EMT markers vimentin (VIM), SNAIL (SNAI1), ZEB1 and TWIST1 (MDA-MB-231 cells [2]): decreased
- mRNA expression of EMT markers VIM (vimentin), SNAI1, SNAI2 and TWIST1 (MDA-MB-436 cells [3]): downregulated
- mRNA expression of all analyzed EMT inducers (SkBr3 cells [4]): repressed
- migratory capability (MDA-MB-231 cells [5]): highly significantly reduced
- cell migration (MDA-MB-436 cells [6]): inhibited
- migratory capability (SkBr3 cells [7]): highly significantly reduced
- tumor samples in which PSAT1 expression was induced [8]: 100%
- PHGDH-1 transcript upregulated in response to MitoQ: Validated in vivo ([8]; tumors resected day +32): + (Repressed or induced by ≥2-fold with P < 0.01 and MDA-MB-231 primary tumors in mice.)
- PSAT1 transcript upregulated in response to MitoQ: Validated in vivo ([8]; tumors resected day +32): + (Repressed or induced by ≥2-fold with P < 0.01 and MDA-MB-231 primary tumors in mice.)
- SERPINE1 transcript upregulated in response to MitoQ: Validated in vivo ([8]; tumors resected day +32): + (Repressed or induced by ≥2-fold with P < 0.01 and MDA-MB-231 primary tumors in mice.)
- SLC7A11 transcript upregulated in response to MitoQ: Validated in vivo ([8]; tumors resected day +32): + (Repressed or induced by ≥2-fold with P < 0.01 and MDA-MB-231 primary tumors in mice.)
- TXNRD1 transcript upregulated in response to MitoQ: Validated in vivo ([8]; tumors resected day +32): + (Repressed or induced by ≥2-fold with P < 0.01 and MDA-MB-231 primary tumors in mice.)
- fold induction at 20 mg/kg ([8]; Mus musculus, MDA-MB-231, P<0.01, read-out: fold induction of PHGDH-1, SLC7A11, SERPINE1, TXNRD1 and PSAT1 (each independently)): ≥ 2
- protein expression of Vimentin, SNAI1, SNAI2 (SLUG), ZEB1 and TWIST1 (MDA-MB-436 cells [9]): decrease
- cell cycle (MDA-MB-231 cells [10]): not altered
